Key:
5-lipoxygenase = target: T1, 5-lipoxygenase (Solanum tuberosum, UniProt O49150); assay: Inhibitory activity against potato 5LOX
T1 sequence (O49150 whole entry): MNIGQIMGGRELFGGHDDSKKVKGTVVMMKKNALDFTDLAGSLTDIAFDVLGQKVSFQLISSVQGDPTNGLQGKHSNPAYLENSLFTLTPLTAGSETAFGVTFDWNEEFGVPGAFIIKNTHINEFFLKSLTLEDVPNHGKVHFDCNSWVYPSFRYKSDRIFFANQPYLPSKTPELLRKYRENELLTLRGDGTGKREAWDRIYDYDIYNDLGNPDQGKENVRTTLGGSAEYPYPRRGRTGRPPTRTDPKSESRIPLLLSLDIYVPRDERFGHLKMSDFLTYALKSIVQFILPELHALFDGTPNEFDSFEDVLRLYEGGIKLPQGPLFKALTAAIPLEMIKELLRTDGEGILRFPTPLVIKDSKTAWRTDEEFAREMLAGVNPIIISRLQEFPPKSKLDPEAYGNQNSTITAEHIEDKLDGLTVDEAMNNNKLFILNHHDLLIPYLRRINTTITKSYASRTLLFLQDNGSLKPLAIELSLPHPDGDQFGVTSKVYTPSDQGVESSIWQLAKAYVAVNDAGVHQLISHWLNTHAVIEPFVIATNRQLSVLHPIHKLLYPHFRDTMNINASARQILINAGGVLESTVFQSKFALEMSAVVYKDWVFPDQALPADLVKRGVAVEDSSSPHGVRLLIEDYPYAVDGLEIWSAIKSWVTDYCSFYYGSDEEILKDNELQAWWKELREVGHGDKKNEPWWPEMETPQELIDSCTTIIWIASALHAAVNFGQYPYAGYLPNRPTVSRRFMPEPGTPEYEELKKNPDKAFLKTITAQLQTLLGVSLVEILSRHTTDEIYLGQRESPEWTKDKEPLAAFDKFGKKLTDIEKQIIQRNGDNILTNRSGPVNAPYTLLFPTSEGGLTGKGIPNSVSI

Rattus norvegicus [1] = assay: Anti-inflammatory activity against carrageenan-induced edema in Sprague-Dawley rat paw after 3 hrs of 30 mg/kg, po; type: functional
Rattus norvegicus [2] = assay: Inhibitory activity against 4% NaCl-induced abdominal constriction in Sprague-Dawley rat after 30 min of 30 mg/kg, po; type: functional; settings: Abdomen, 0.5 h
Rattus norvegicus [3] = assay: Inhibitory activity against 4% NaCl-induced abdominal constriction in Sprague-Dawley rat after 60 min of 30 mg/kg, po; type: functional; settings: Abdomen, 1 h
[4] = target: T2, Prostaglandin G/H synthase 1 (Ovis aries, UniProt P05979); assay: Inhibitory activity against ovine COX1
T2 sequence (P05979 whole entry): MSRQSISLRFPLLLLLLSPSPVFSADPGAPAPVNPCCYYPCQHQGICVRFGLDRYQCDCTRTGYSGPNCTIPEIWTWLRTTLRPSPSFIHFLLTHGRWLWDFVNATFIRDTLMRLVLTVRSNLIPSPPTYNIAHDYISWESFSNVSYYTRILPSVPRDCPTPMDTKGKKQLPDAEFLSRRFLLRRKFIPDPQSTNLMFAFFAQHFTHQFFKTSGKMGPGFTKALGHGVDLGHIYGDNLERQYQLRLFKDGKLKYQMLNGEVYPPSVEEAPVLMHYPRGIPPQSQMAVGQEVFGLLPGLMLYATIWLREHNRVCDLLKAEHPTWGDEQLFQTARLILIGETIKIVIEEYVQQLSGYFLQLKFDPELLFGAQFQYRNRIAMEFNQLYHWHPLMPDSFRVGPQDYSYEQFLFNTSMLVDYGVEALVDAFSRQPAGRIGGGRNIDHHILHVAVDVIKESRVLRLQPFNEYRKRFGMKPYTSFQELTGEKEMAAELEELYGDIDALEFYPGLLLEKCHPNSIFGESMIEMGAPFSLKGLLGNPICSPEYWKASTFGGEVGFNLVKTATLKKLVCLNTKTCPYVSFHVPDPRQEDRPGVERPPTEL

[5] = target: T3, Seed linoleate 13S-lipoxygenase-1 (Glycine max, UniProt P08170)
T3 sequence (P08170 whole entry): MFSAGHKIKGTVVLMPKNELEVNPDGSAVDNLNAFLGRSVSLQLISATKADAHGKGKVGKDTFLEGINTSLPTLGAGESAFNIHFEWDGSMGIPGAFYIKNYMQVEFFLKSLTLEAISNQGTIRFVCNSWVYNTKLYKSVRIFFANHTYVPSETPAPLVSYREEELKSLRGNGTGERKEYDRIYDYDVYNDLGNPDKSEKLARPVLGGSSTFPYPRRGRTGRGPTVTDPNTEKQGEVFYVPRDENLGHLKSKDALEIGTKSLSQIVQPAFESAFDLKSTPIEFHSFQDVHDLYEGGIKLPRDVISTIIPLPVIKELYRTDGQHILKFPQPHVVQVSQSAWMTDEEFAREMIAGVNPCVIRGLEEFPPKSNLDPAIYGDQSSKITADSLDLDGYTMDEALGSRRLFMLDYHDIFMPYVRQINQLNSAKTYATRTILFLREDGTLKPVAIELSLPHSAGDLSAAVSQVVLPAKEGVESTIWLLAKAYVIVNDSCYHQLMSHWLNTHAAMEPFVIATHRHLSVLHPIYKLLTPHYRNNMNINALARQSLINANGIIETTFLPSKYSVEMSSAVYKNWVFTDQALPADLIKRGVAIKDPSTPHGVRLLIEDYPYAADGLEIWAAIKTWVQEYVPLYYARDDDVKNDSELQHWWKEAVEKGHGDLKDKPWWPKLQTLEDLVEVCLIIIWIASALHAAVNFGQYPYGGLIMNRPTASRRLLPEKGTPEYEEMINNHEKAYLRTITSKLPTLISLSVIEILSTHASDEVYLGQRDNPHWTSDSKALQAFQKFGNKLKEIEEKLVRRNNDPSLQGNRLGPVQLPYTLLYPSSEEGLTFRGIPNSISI
Description: Inhibitory activity against soybean 15LOX

Rattus norvegicus [6] = species on record: Rattus norvegicus; assay: animal or person; settings: Sprague-Dawley, Abdomen, po, 0.5 h, read-out: Inhibition
Description: Inhibitory activity against 4% NaCl-induced abdominal constriction in Sprague-Dawley rat after 30 min of 5 mg/kg, po

Row | Structure (SMILES) | IC50 (5-lipoxygenase) | inhibition in vivo at 30 mg/kg (Rattus norvegicus [1]) | inhibition in vivo at 30 mg/kg (Rattus norvegicus [2]) | inhibition in vivo at 30 mg/kg (Rattus norvegicus [3]) | ED50 (Rattus norvegicus [1]) | IC50 [4] | IC50 [5] | inhibition in vivo at 5 mg/kg (Rattus norvegicus [6])
1 | CS(=O)(=O)c1ccc(C#CC(=O)c2ccc(C(F)(F)F)cc2)cc1 | > 10 µM | 16.2% | 38% | 66.2% | – | – | – | –
2 | CS(=O)(=O)c1ccc(C#CC(=O)c2ccc(O)cc2)cc1 | 0.3 µM | 37.4% | 52.4% | 56.6% | 51.3 mg/kg | – | – | –
3 | COc1cccc(C(=O)C#Cc2ccc(S(C)(=O)=O)cc2)c1 | 9 µM | 24.2% | 72.6% | 54.7% | – | – | – | –
4 | COc1cc(C(=O)C#Cc2ccc(S(C)(=O)=O)cc2)cc(OC)c1OC | 7 µM | 35.7% | 60.2% | 46.2% | 113 mg/kg | – | – | –
5 | Cc1ccc(C(=O)C#Cc2ccc(S(C)(=O)=O)cc2)cc1 | > 10 µM | – | – | – | – | – | – | –
6 | COc1ccc(C(=O)C#Cc2ccc(S(C)(=O)=O)cc2)cc1O | > 10 µM | – | – | – | – | – | – | –
7 | CS(=O)(=O)c1ccc(C#CC(=O)c2ccc(F)c(F)c2)cc1 | 0.4 µM | 6.8% | 50.8% | 46.1% | – | – | – | –
8 | COc1ccc(C(=O)C#Cc2ccc(S(C)(=O)=O)cc2)cc1OC | 1 µM | – | – | – | – | 3.3 µM | > 10 µM | –
9 | CS(=O)(=O)c1ccc(C#CC(=O)c2ccc([N+](=O)[O-])cc2)cc1 | 6.2 µM | – | – | – | – | 0.25 µM | > 10 µM | –
10 | CCCCc1ccc(C(=O)C#Cc2ccc(S(C)(=O)=O)cc2)cc1 | 4.5 µM | – | – | – | – | > 100 µM | > 10 µM | –
11 | CS(=O)(=O)c1ccc(C#CC(=O)c2cccc3ccccc23)cc1 | > 10 µM | 8.8% | 56.4% | 40.3% | – | > 100 µM | > 10 µM | –
12 | CS(=O)(=O)c1ccc(C#CC(=O)c2ccno2)cc1 | 1.5 µM | – | – | – | – | 32.2 µM | > 10 µM | –
13 | CC(C)c1ccc(C(=O)C#Cc2ccc(S(C)(=O)=O)cc2)cc1 | – | 48.1% | 40.7% | 53.7% | 35 mg/kg | 9.2 µM | 0.36 µM | –
14 | COC(=O)c1ccc(C(=O)C#Cc2ccc(S(C)(=O)=O)cc2)cc1 | > 10 µM | 21.5% | 56.2% | 71.2% | – | > 100 µM | 5 µM | –
15 | CS(=O)(=O)c1ccc(C#CC(=O)c2ccoc2)cc1 | 0.1 µM | 26.4% | 57.7% | 76.6% | – | 1 µM | > 10 µM | –
16 | CS(=O)(=O)c1ccc(C#CC(=O)c2ccc(S(C)(=O)=O)cc2)cc1 | > 10 µM | – | – | – | – | > 100 µM | > 10 µM | –
17 | COc1ccc(C(=O)C#Cc2ccc(S(C)(=O)=O)cc2)c2ccccc12 | > 10 µM | 24% | 56.7% | 36.7% | – | > 100 µM | 0.3 µM | –
18 | CSc1ccc(C(=O)C#Cc2ccc(S(C)(=O)=O)cc2)cc1 | – | – | – | – | – | 9.2 µM | 0.36 µM | –
19 | CCCc1ccc(C(=O)C#Cc2ccc(S(C)(=O)=O)cc2)cc1 | 3.2 µM | – | – | – | – | 3.2 µM | 3.2 µM | –
20 | CS(=O)(=O)c1ccc(C#CC(=O)c2ccc(C#N)cc2)cc1 | – | 29.6% | 48.6% | 36.2% | 90 mg/kg | – | – | –
21 | CS(=O)(=O)c1ccc(C#CC(=O)c2cccc(O)c2)cc1 | 0.3 µM | – | – | – | – | – | – | –
22 | COc1ccc(C(=O)C#Cc2ccc(S(C)(=O)=O)cc2)cc1 | > 10 µM | 30.2% | 42.7% | 38.6% | 60.1 mg/kg | – | – | –
23 | COc1cc(C(=O)C#Cc2ccc(S(C)(=O)=O)cc2)ccc1O | > 10 µM | 26% | 15.4% | 45.8% | – | – | – | –
24 | CS(=O)(=O)c1ccc(C#CC(=O)c2cccc([N+](=O)[O-])c2)cc1 | > 10 µM | – | – | – | – | 2 µM | 3.5 µM | –
25 | CS(=O)(=O)c1ccc(C#CC(=O)c2ccc(F)cc2)cc1 | > 10 µM | 26.3% | 83.8% | 72% | – | – | – | –
26 | CC(=O)Oc1ccccc1C(=O)O [ASPIRIN] | – | – | 29.7% | 46.4% | 129 mg/kg | – | – | –
27 | O=C(O)/C=C/c1ccc(O)c(O)c1 [CAFFEIC ACID] | – | 8.2% | 47.2% | 58.3% | – | – | – | –
28 | Cc1ccc(-c2cc(C(F)(F)F)nn2-c2ccc(S(N)(=O)=O)cc2)cc1 [CELECOXIB] | – | – | – | – | – | – | – | 69.3%
29 | CC(Cc1ccc(O)c(O)c1)C(C)Cc1ccc(O)c(O)c1 (stereo unspecified) [NORDIHYDROGUAIARETIC ACID] | – | 15.1% | 45.8% | 62.5% | 205 mg/kg | – | – | –

Source: ChEMBL document CHEMBL1138184, “Synthesis and structure-activity relationship studies of 1,3-diarylprop-2-yn-1-ones: dual inhibitors of cyclooxygenases and lipoxygenases” (J Med Chem, 2006)
